Holding throughout (format): cell-based
One assay addresses T1, Ole1 (Saccharomyces cerevisiae, UniProt P21147).
T1 construct: expressed in transfected cells; host or cells: S. cerevisiae ole1Δ strain (W303 pdr1Δ pdr3Δ background), plasmid pRS316 with TDH3 promoter and CYC1 terminator
T1 sequence (P21147 1-510): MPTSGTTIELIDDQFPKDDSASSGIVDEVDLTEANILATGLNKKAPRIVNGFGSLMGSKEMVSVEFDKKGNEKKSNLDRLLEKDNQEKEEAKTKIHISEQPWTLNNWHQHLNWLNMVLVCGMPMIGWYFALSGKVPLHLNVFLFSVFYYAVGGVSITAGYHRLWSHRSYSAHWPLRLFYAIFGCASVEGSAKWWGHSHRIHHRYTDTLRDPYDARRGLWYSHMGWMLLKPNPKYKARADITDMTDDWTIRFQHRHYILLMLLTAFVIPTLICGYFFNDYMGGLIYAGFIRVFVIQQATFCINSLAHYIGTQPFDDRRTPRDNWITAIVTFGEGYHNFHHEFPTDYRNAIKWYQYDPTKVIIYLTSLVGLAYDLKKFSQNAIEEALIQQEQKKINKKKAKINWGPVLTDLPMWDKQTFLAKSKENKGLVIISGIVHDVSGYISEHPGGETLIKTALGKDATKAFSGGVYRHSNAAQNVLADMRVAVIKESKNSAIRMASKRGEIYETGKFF
Put plainly: Growth inhibition of yeast strain expressing Ole1 as sole desaturase. As to conditions: yeast strain expressing Ole1 as sole desaturase. In short, it runs like this:
(§1)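 Measured by optical density at 600 nm, growth of desaturase-dependent yeast (OLE1 deleted; human SCD1, human SCD5 or yeast Ole1 supplied from plasmid) was scored after 24 h (Ole1) or 40 h (SCD1, SCD5) at 30° C. in galactose media lacking uracil with DMSO-delivered compound.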

Another assay has as its target T2, SCD1 (Homo sapiens, UniProt O00767).
T2 construct: host or cells: S. cerevisiae ole1Δ strain (W303 pdr1Δ pdr3Δ background), plasmid pRS316 with TDH3 promoter and CYC1 terminator
T2 sequence (O00767 1-359): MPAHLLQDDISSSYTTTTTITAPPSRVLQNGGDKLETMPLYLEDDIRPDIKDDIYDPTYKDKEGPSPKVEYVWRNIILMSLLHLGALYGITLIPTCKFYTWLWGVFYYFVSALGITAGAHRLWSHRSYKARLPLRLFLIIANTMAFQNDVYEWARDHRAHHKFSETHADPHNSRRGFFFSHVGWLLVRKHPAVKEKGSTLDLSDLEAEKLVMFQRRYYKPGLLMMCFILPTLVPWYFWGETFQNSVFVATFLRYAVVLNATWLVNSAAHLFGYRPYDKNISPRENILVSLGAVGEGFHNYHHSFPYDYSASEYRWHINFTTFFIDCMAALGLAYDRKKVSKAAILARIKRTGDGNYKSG
Put plainly: Growth inhibition of humanized yeast strain expressing SCD1 as sole desaturase. To be noted: humanized yeast strain expressing SCD1. In short, it runs like this:
as §1

Another assay addresses T3, SCD5 (Homo sapiens, UniProt Q86SK9).
T3 construct: host or cells: S. cerevisiae ole1Δ strain (W303 pdr1Δ pdr3Δ background), plasmid pRS316 with TDH3 promoter and CYC1 terminator
T3 sequence (Q86SK9 1-330): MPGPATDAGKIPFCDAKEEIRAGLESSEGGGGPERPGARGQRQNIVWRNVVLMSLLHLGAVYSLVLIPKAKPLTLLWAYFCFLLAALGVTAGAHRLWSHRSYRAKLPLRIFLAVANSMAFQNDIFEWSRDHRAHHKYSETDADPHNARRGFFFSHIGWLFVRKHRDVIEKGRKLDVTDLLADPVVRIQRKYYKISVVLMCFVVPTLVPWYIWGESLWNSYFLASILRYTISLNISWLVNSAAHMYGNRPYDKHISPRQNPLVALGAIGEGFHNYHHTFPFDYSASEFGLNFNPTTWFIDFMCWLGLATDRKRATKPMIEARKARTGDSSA
Put plainly: Growth inhibition of humanized yeast strain expressing SCD5 as sole desaturase. As to conditions: humanized yeast strain expressing SCD5. In short, it runs like this: as §1

“And” between values parts separate entries of the source, which are not always exact repeats. Equal entries are not always repeated. Bounds are passed on as bounds.

Take `Cc1nn(C)c2cc(-c3noc(N4CCN(C(=O)c5cc(F)ccc5Cl)CC4)n3)ccc12` [Compound 278]: at Ole1, the half-maximal inhibitory concentration (IC50) was above 45 µM and the “OLE1 % Max Inhibition” value turned out to be 21.08%. In addition, the “SCD1 % Max Inhibition” value at SCD1 is on record as 32.22%. In addition, at SCD5, the IC50 is above 45 µM and the “SCD5 % Max Inhibition” value came to 10.55%.

For the compound `Cc1nn(C2CC2)c2cc(-c3noc(C4CCN(C(=O)CNC(=O)c5ccccc5)CC4)n3)ccc12` [Compound 286], on Ole1, the IC50 is above 45 µM; the “OLE1 % Max Inhibition” value is 5.18% and 4.35%. Also, the “SCD1 % Max Inhibition” value at SCD1 was 13.04% and 14.44%. For the same compound, at SCD5, the IC50 was above 45 µM; the “SCD5 % Max Inhibition” value is 8.76% and 9.55%.

As to `Cc1nn(C)c2cc(-c3noc(N4CCN(C(=O)N5CCCCC5)CC4)n3)ccc12` [Compound 327], at Ole1, the IC50 is above 45 µM and the “OLE1 % Max Inhibition” value worked out at 74.8%. On SCD1, the “SCD1 % Max Inhibition” value came out at 66.5%. Besides, on SCD5, the 50% inhibitory concentration (IC50) is above 45 µM and the “SCD5 % Max Inhibition” value is 68.0%.

With `Cc1nn(C)c2cc(-c3noc(N4CCC(C(=O)N5CCO[C@H](c6ccccc6)C5)CC4)n3)ccc12` [Compound 211], at Ole1, the IC50 was above 45 µM and the “OLE1 % Max Inhibition” value amounted to 2.65%. On SCD1, the 50% inhibitory concentration (IC50) was above 45 µM and the “SCD1 % Max Inhibition” value amounted to 39.99%. Also, on SCD5, the IC50 is above 45 µM and the “SCD5 % Max Inhibition” value worked out at 6.95%.

For the compound `Cc1nn(C)c2cc(-c3nsc(C4CCN(C(=O)OC(C)(C)C)CC4)n3)ccc12` [Compound 300], at Ole1, the concentration for half-maximal inhibition (IC50) is above 45 µM and the “OLE1 % Max Inhibition” value is recorded as 79.7%. Further, the “SCD1 % Max Inhibition” value on SCD1 is 78.1%. For the same compound, at SCD5, the half-inhibitory concentration (IC50) is above 45 µM and the “SCD5 % Max Inhibition” value is 36.0%.

Turning to `Cc1nn(C)c2cc(-c3noc(C4CCN(C(=O)CN5Cc6ccccc6C5=O)CC4)n3)cnc12` [Compound 200], at Ole1, the IC50 is above 45 µM and the “OLE1 % Max Inhibition” value is 2.69%. At SCD1, the concentration for half-maximal inhibition (IC50) is above 45 µM and the “SCD1 % Max Inhibition” value came out at 79.67%. Also, at SCD5, the IC50 turned out to be 41.1 µM and the “SCD5 % Max Inhibition” value was found to be 64.72%.

For `Cc1c2ccc(-c3noc(C4CCN(C(=O)CNC(=O)c5ccccc5)CC4)n3)cc2nn1C(C)C` [Compound 289], on Ole1, the concentration for half-maximal inhibition (IC50) was above 45 µM and the “OLE1 % Max Inhibition” value is reported as 45.87%. The “SCD1 % Max Inhibition” value at SCD1 is reported as 62.01%. Besides, on SCD5, the half-maximal inhibitory concentration (IC50) was above 45 µM and the “SCD5 % Max Inhibition” value stood at 77.71%.

Consider `O=C([C@H]1CC(=O)N(c2ccccc2)C1)N1CCC(c2nc(-c3ccc(Br)s3)no2)CC1` [Compound 248], for which, on Ole1, the 50% inhibitory concentration (IC50) was above 45 µM and the “OLE1 % Max Inhibition” value was found to be 73.12%. The “SCD1 % Max Inhibition” value at SCD1 stood at 3.09%. For the same compound, at SCD5, the 50% inhibitory concentration (IC50) was above 45 µM and the “SCD5 % Max Inhibition” value amounted to 13.59%.

Turning to `Cc1nn(C)c2cc(-c3noc(C4CCN(C(=O)c5ccccc5C(F)(F)F)CC4)n3)ccc12` [Compound 283], at Ole1, the 50% inhibitory concentration (IC50) is above 45 µM and the “OLE1 % Max Inhibition” value is on record as 24.43%. Moreover, on SCD1, the IC50 worked out at 34.6 µM and the “SCD1 % Max Inhibition” value was found to be 34.91%. At SCD5, the IC50 is above 45 µM and the “SCD5 % Max Inhibition” value stood at 9.83%.

Turning to `Cn1c(=O)n(C)c2cc(-c3noc(C4CCN(C(=O)CNC(=O)c5cccnc5)CC4)n3)ccc21` [Compound 233], at Ole1, the IC50 is above 45 µM and the “OLE1 % Max Inhibition” value is recorded as 18.46%. Also, on SCD1, the IC50 was above 45 µM and the “SCD1 % Max Inhibition” value is recorded as 73.65%. Further, at SCD5, the IC50 was above 45 µM and the “SCD5 % Max Inhibition” value amounted to 74.91%.

Regarding `COc1cc(OC)cc(-c2noc(C3CCN(C(=O)CNC(=O)c4ccccc4)CC3)n2)c1` [Compound 187], at Ole1, the half-inhibitory concentration (IC50) is above 45 µM and the “OLE1 % Max Inhibition” value turned out to be 97.42%. For the same compound, at SCD1, the IC50 is above 45 µM and the “SCD1 % Max Inhibition” value worked out at 72.13%. Moreover, at SCD5, the IC50 is above 45 µM and the “SCD5 % Max Inhibition” value was found to be 2.91%.

The values above are taken from US11873298B2, “Compounds and uses thereof” (JANSSEN PHARMACEUTICA NV, priority 2017, dated 2024).
